Assay results: US10954214B2 (Janssen Pharmaceutica NV, priority 2016, dated 2021)

How the values were obtained:
[1] = test system: IL6 secretion by OCI-LY3 ABC-DLBCL cells; experiment: Human IL6 Mesoscale assay (OCI-LY3); type: cell-based; conditions: Homo sapiens, 24 h
Summary of the method: (§1)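 TMD8 or OCI-LY3 cells (100,000/well) were exposed to compounds in 9 twofold dilutions from 15 μM to 58.6 nM (0.3% DMSO) for 24 h at 37 °C. Supernatant IL6 and IL10 were quantified by MSD electrochemiluminescence immunoassay. DMSO defined maximum signal and BTK inhibitor RN486 (30 nM–131 pM) defined maximum inhibition.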

[2] = test system: IL10 secretion by OCI-LY3 ABC-DLBCL cells; experiment: Human IL10 Mesoscale assay (OCI-LY3); type: cell-based; conditions: Homo sapiens, 24 h
Summary of the method: as §1

[3] = molecular target: full-length MALT1 protein (Strep-MALT1(1-824)-His) (Homo sapiens (Human), UniProt Q9UDY8); experiment: MALT1 Biochemical Protease Assay (Ac-LRSR-AMC substrate); conditions: 10 nM FL MALT1, 200 μM Ac-LRSR-AMC, 4 h at RT; read-out: MALT1_Biochemical activity (Ac-LRSR-amc) IC50
full-length MALT1 protein (Strep-MALT1(1-824)-His), sequence (Q9UDY8 whole entry): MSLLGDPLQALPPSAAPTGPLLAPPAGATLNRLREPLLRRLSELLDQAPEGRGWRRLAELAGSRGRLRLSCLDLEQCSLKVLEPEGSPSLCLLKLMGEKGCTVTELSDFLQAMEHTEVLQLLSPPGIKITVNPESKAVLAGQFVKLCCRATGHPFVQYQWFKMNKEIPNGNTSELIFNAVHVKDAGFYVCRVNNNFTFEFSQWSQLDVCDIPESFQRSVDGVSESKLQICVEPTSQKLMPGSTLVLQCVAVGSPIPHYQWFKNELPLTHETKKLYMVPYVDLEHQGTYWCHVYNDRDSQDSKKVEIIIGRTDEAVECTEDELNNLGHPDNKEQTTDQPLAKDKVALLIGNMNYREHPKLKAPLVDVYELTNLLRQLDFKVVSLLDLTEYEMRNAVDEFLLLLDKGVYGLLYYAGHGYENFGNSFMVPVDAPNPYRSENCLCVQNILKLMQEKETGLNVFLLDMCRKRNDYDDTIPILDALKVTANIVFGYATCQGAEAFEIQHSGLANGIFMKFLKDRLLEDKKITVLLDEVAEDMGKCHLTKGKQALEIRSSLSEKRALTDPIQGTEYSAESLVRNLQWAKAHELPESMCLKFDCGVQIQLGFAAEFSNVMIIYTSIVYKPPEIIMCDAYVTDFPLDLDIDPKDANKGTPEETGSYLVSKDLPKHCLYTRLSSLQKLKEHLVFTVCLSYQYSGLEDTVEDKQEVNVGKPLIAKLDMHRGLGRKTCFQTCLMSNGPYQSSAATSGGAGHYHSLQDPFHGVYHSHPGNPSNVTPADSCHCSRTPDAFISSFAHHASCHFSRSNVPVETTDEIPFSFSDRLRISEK
Summary of the method: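 Full-length MALT1 pre-incubated with compounds (30 μM to 0.5 nM, 11 threefold steps) for 50 min at RT. After Ac-LRSR-AMC was added, the reaction ran 4 h at RT and AMC fluorescence was read. IC50 and Hill slope from curve fitting against no-enzyme and no-compound controls.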

## N#Cc1cc(NC(=O)c2cnn(-c3cnc(F)c4ccccc34)c2C(F)(F)F)cnc1-n1nccn1 [Cpd 289, N-(5-cyano-6-(2H-1,2,3-triazol-2-yl)pyridin-3-yl)-1-(1-fluoroisoquinolin-4-yl)-5-(trifluoromethyl)-1H-pyrazole-4-carboxamide]
[1]
  IC50: 132 nM
[2]
  IC50: 123 nM
[3]
  IC50: 91 nM

## O=C(Nc1cnc(-n2nccn2)c(Cl)c1)c1cnn(-c2nsc3ccccc23)c1C(F)(F)F [Cpd 290, 1-(benzo[d]isothiazol-3-yl)-N-(5-chloro-6-(2H-1,2,3-triazol-2-yl)pyridin-3-yl)-5-(trifluoromethyl)-1H-pyrazole-4-carboxamide]
[1]
  IC50: 186 nM
[2]
  IC50: 110 nM
[3]
  IC50: 81 nM

## N#Cc1cc(NC(=O)c2cnn(-c3cccc4nc(F)ccc34)c2C(F)(F)F)cnc1-n1nccn1 [Cpd 291, N-(5-cyano-6-(2H-1,2,3-triazol-2-yl)pyridin-3-yl)-1-(2-fluoroquinolin-5-yl)-5-(trifluoromethyl)-1H-pyrazole-4-carboxamide]
[1]
  IC50: 110 nM
[2]
  IC50: 100 nM
[3]
  IC50: 81 nM

## N#Cc1cc(NC(=O)c2cnn(-c3ncnc4occc34)c2C(F)(F)F)cnc1-n1nccn1 [Cpd 292, N-(5-cyano-6-(2H-1,2,3-triazol-2-yl)pyridin-3-yl)-1-(furo[2,3-d]pyrimidin-4-yl)-5-(trifluoromethyl)-1H-pyrazole-4-carboxamide]
[1]
  IC50: 151 nM
[2]
  IC50: 115 nM
[3]
  IC50: 79 nM

## Cn1ccc(-c2ncc(NC(=O)c3cnn(-c4cccc5nnsc45)c3C(F)(F)F)cc2Cl)n1 [Cpd 293, 1-(benzo[d][1,2,3]thiadiazol-7-yl)-N-(5-chloro-6-(1-methyl-1H-pyrazol-3-yl)pyridin-3-yl)-5-(trifluoromethyl)-1H-pyrazole-4-carboxamide]
[1]
  IC50: 447 nM
[2]
  IC50: 251 nM
[3]
  IC50: 76 nM

## N#Cc1cc(NC(=O)c2cnn(-c3ncnc4scnc34)c2C(F)(F)F)cnc1-n1nccn1 [Cpd 294, N-(5-cyano-6-(2H-1,2,3-triazol-2-yl)pyridin-3-yl)-1-(thiazolo[5,4-d]pyrimidin-7-yl)-5-(trifluoromethyl)-1H-pyrazole-4-carboxamide]
[1]
  IC50: 1580 nM
[2]
  IC50: 871 nM
[3]
  IC50: 76 nM

## Cc1nc2ccccn2c1-n1ncc(C(=O)Nc2cnc(-n3nccn3)c(C#N)c2)c1C(F)(F)F [Cpd 295, N-(5-cyano-6-(2H-1,2,3-triazol-2-yl)pyridin-3-yl)-1-(2-methylimidazo[1,2-a]pyridin-3-yl)-5-(trifluoromethyl)-1H-pyrazole-4-carboxamide]
[1]
  IC50: 1260 nM
[2]
  IC50: 724 nM
[3]
  IC50: 74 nM

## N#Cc1cc(NC(=O)c2cnn(-c3ncnc4ccccc34)c2C(F)(F)F)cnc1-n1nccn1 [Cpd 296, N-(5-cyano-6-(2H-1,2,3-triazol-2-yl)pyridin-3-yl)-1-(quinazolin-4-yl)-5-(trifluoromethyl)-1H-pyrazole-4-carboxamide]
[1]
  IC50: 182 nM
[2]
  IC50: 69 nM
[3]
  IC50: 72 nM

## Cc1nc(-n2nccn2)c(C#N)cc1NC(=O)c1cnn(-c2cccc3scnc23)c1C(F)(F)F [Cpd 297, 1-(benzo[d]thiazol-4-yl)-N-(5-cyano-2-methyl-6-(2H-1,2,3-triazol-2-yl)pyridin-3-yl)-5-(trifluoromethyl)-1H-pyrazole-4-carboxamide]
[1]
  IC50: 135 nM
[2]
  IC50: 115 nM
[3]
  IC50: 251 nM

## Cc1cc(-n2nccn2)c(C#N)cc1NC(=O)c1cnn(-c2cccc3scnc23)c1C(F)(F)F [Cpd 298, 1-(benzo[d]thiazol-4-yl)-N-(5-cyano-2-methyl-4-(2H-1,2,3-triazol-2-yl)phenyl)-5-(trifluoromethyl)-1H-pyrazole-4-carboxamide]
[1]
  IC50: 50 nM
[2]
  IC50: 25 nM
[3]
  IC50: 1350 nM

## Nc1cnn(-c2ncc(NC(=O)c3cnn(-c4cccc5scnc45)c3C(F)(F)F)cc2Cl)n1 [Cpd 299, N-(6-(4-amino-2H-1,2,3-triazol-2-yl)-5-chloropyridin-3-yl)-1-(benzo[d]thiazol-4-yl)-5-(trifluoromethyl)-1H-pyrazole-4-carboxamide]
[1]
  IC50: 537 nM
[2]
  IC50: 309 nM
[3]
  IC50: 105 nM

## Cc1cc(NC(=O)c2cnn(-c3cccc4scnc34)c2C(F)(F)F)c(C)nc1-n1nccn1 [Cpd 300, 1-(benzo[d]thiazol-4-yl)-N-(2,5-dimethyl-6-(2H-1,2,3-triazol-2-yl)pyridin-3-yl)-5-(trifluoromethyl)-1H-pyrazole-4-carboxamide]
[1]
  IC50: 525 nM
[2]
  IC50: 339 nM
[3]
  IC50: 4170 nM

## O=C(Nc1cc(Cl)c(-n2nccn2)cc1F)c1cnn(-c2cccc3nnsc23)c1C(F)(F)F [Cpd 301, 1-(benzo[d][1,2,3]thiadiazol-7-yl)-N-(5-chloro-2-fluoro-4-(2H-1,2,3-triazol-2-yl)phenyl)-5-(trifluoromethyl)-1H-pyrazole-4-carboxamide]
[1]
  IC50: 501 nM
[2]
  IC50: 417 nM
[3]
  IC50: 141 nM

## O=C(Nc1cnc(-c2nn[nH]n2)c(Cl)c1)c1cnn(-c2cccc3ncccc23)c1C(F)(F)F [Cpd 307, N-(5-chloro-6-(2H-tetrazol-5-yl)pyridin-3-yl)-1-(quinolin-5-yl)-5-(trifluoromethyl)-1H-pyrazole-4-carboxamide]
[1]
  IC50: 447 nM
[2]
  IC50: 427 nM
[3]
  IC50: 58 nM

## O=C(Nc1cnc(-c2cn[nH]n2)c(Cl)c1)c1cnn(-c2cccc3ncccc23)c1C(F)(F)F [Cpd 309, N-(5-chloro-6-(2H-1,2,3-triazol-4-yl)pyridin-3-yl)-1-(quinolin-5-yl)-5-(trifluoromethyl)-1H-pyrazole-4-carboxamide]
[1]
  IC50: 151 nM
[2]
  IC50: 117 nM
[3]
  IC50: 55 nM

## Cc1cc(-n2nccn2)c(Cl)cc1NC(=O)c1cnn(-c2cncc3c(F)cccc23)c1C(F)(F)F [Cpd 317, N-(5-chloro-2-methyl-4-(2H-1,2,3-triazol-2-yl)phenyl)-1-(8-fluoroisoquinolin-4-yl)-5-(trifluoromethyl)-1H-pyrazole-4-carboxamide]
[1]
  IC50: 72 nM
[2]
  IC50: 66 nM
[3]
  IC50: 65 nM

## Cc1nc(-n2nccn2)c(Cl)cc1NC(=O)c1cnn(-c2ccc(C)n3nccc23)c1C(F)(F)F [Cpd 318, N-(5-chloro-2-methyl-6-(2H-1,2,3-triazol-2-yl)pyridin-3-yl)-1-(7-methylpyrazolo[1,5-a]pyridin-4-yl)-5-(trifluoromethyl)-1H-pyrazole-4-carboxamide]
[1]
  IC50: 162 nM
[2]
  IC50: 138 nM
[3]
  IC50: 83 nM

## O=C(Nc1ccnc(C(F)(F)F)c1)c1cnn(-c2cccn3nccc23)c1C(F)(F)F [Cpd 319, 1-(pyrazolo[1,5-a]pyridin-4-yl)-5-(trifluoromethyl)-N-(2-(trifluoromethyl)pyridin-4-yl)-1H-pyrazole-4-carboxamide]
[1]
  IC50: 20 nM
[2]
  IC50: 18 nM
[3]
  IC50: 107 nM

## O=C(Nc1ccnc(C(F)(F)F)c1)c1cnn(-c2cncc3c(F)cccc23)c1C(F)(F)F [Cpd 320, 1-(8-fluoroisoquinolin-4-yl)-5-(trifluoromethyl)-N-(2-(trifluoromethyl)pyridin-4-yl)-1H-pyrazole-4-carboxamide]
[1]
  IC50: 182 nM
[2]
  IC50: 93 nM
[3]
  IC50: 69 nM

## Cc1nc(-n2nccn2)c(Cl)cc1NC(=O)c1cnn(-c2cncc3sccc23)c1C(F)(F)F [Cpd 321, N-(5-chloro-2-methyl-6-(2H-1,2,3-triazol-2-yl)pyridin-3-yl)-1-(thieno[2,3-c]pyridin-4-yl)-5-(trifluoromethyl)-1H-pyrazole-4-carboxamide]
[1]
  IC50: 66 nM
[2]
  IC50: 49 nM
[3]
  IC50: 21 nM

## CNc1ncc(-n2ncc(C(=O)Nc3cnc(-n4nccn4)c(Cl)c3)c2C(F)(F)F)c2ccccc12 [Cpd 323, N-(5-chloro-6-(2H-1,2,3-triazol-2-yl)pyridin-3-yl)-1-(1-(methylamino)isoquinolin-4-yl)-5-(trifluoromethyl)-1H-pyrazole-4-carboxamide]
[1]
  IC50: 195 nM
[2]
  IC50: 141 nM
[3]
  IC50: 174 nM

## CNc1ncc(-n2ncc(C(=O)Nc3cnc(-n4nccn4)c(Cl)c3)c2C(F)(F)F)c2cccc(F)c12 [Cpd 324, N-(5-chloro-6-(2H-1,2,3-triazol-2-yl)pyridin-3-yl)-1-(8-fluoro-1-(methylamino)isoquinolin-4-yl)-5-(trifluoromethyl)-1H-pyrazole-4-carboxamide]
[1]
  IC50: 40 nM
[2]
  IC50: 16 nM
[3]
  IC50: 117 nM

## CNc1ncc(-n2ncc(C(=O)Nc3cnc(-n4nccn4)c(C#N)c3)c2C(F)(F)F)c2cccc(F)c12 [Cpd 325, N-(5-cyano-6-(2H-1,2,3-triazol-2-yl)pyridin-3-yl)-1-(8-fluoro-1-(methylamino)isoquinolin-4-yl)-5-(trifluoromethyl)-1H-pyrazole-4-carboxamide]
[1]
  IC50: 646 nM
[2]
  IC50: 794 nM
[3]
  IC50: 55 nM

## Nc1ncc(-n2ncc(C(=O)Nc3cc(Cl)c(-n4nccn4)cc3F)c2C(F)(F)F)c2ccccc12 [Cpd 327, 1-(1-aminoisoquinolin-4-yl)-N-(5-chloro-2-fluoro-4-(2H-1,2,3-triazol-2-yl)phenyl)-5-(trifluoromethyl)-1H-pyrazole-4-carboxamide]
[1]
  IC50: 129 nM
[2]
  IC50: 100 nM
[3]
  IC50: 79 nM

## N#Cc1cc(NC(=O)c2cnn(-c3cccc4c(N)nccc34)c2C(F)(F)F)cnc1-n1nccn1 [Cpd 328, 1-(1-aminoisoquinolin-5-yl)-N-(5-cyano-6-(2H-1,2,3-triazol-2-yl)pyridin-3-yl)-5-(trifluoromethyl)-1H-pyrazole-4-carboxamide]
[1]
  IC50: 741 nM
[2]
  IC50: 589 nM
[3]
  IC50: 2570 nM
